Some test systems named below: DU-145 prostate; MDA-MB-435; MDA-N; DLD-1 colon; DMS 114 small cell lung; KM20L2 colon.
Common to all, as to assay: inhibition of tumour cell growth, NCI panel, 48 h

SMILES strings stand for the structures.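 All cell lines were grown in 96-well plates and treated with compound for 48 hours. GI50 is the concentration that inhibits growth by half. The concentration for full growth arrest is given as TGI.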

As to `Cc1ccc(-c2c3c([nH]c(=O)c2C#N)-c2cc(F)ccc2OC3)cc1`, the GI50 in the assay with DU-145 prostate is > 100 µM; with MDA-MB-435, 35.8 µM. The TGI in the assay on DU-145 prostate and with MDA-MB-435 was > 100 µM each time.
Consider `Cc1nn(CN2CCN(C)CC2)c(=S)n1/N=C/c1cccc2ccccc12`, for which the GI50 was 31.7 µM in the assay with DU-145 prostate and 18.6 µM in the assay with MDA-MB-435. In addition, the TGI was > 100 µM with DU-145 prostate and 43 µM in the assay on MDA-MB-435.
Turning to `COC(=O)C(/C(=N/NC(N)=O)C(=O)Nc1ccc(C)cc1)c1nc2ccc([N+](=O)[O-])cc2[nH]c1=O` (stereo not drawn), the TGI in the assay on MDA-MB-435 and with MDA-N was > 100 µM in each case.
On to `O=C(c1ccco1)c1nc2ccc(C(F)(F)F)cc2[n+]([O-])c1C(F)(F)F`, for which, in the assay on DU-145 prostate, the GI50 is 42.7 µM and the TGI is > 100 µM. In the assay with MDA-MB-435, the GI50 is > 100 µM and the TGI was > 100 µM.
With `COc1cccc(/C=N/NC(=O)c2ccccc2Nc2ccnc(C(F)(F)F)c2)c1O`, in the assay on DU-145 prostate, the GI50 was 0.543 µM and the TGI was > 47 µM. In addition, in the assay on MDA-MB-435, the GI50 was 1.26 µM and the TGI is > 100 µM.
Consider `Cc1c(C(=O)N/N=C/c2ccc(Cl)cc2)nnn1-c1ccnc2c(C(F)(F)F)cccc12`, for which, in the assay on DU-145 prostate, the GI50 was 4.89 µM and the TGI came to 20.5 µM. Besides, in the assay on MDA-MB-435, the GI50 is 4.46 µM and the TGI turned out to be 21.3 µM.
`CSc1cc(N=Nc2nc3ccccc3s2)c2ccccc2c1O`: in the assay on DU-145 prostate, the GI50 was 9.16 µM and the TGI is 16.9 µM. In the assay with MDA-MB-435, the GI50 is 11.1 µM and the TGI stood at 23.9 µM.
Regarding `O=C1NNC=Nc2ccc(cc2)S(=O)(=O)c2ccc(cc2)N=CNNC1=O`, the TGI in the assay with DU-145 prostate, with MDA-MB-435 and in the assay with MDA-N was > 100 µM in each case.
Consider `Cn1cc(-c2cnc3ccc(NC(=O)Nc4ccc(F)c(Br)c4)cc3n2)cn1`, for which, in the assay with DU-145 prostate, the GI50 was 1.67 µM and the TGI was determined as 3.96 µM. In addition, in the assay with MDA-MB-435, the GI50 is 1.81 µM and the TGI worked out at 3.95 µM.
Take `CCCCCCCCCCCC(=O)CC(=O)c1c(O)cccc1O`: the TGI in the assay on DLD-1 colon amounted to 32.4 µM; in the assay on DMS 114 small cell lung it was 34.6 µM; in the assay on KM20L2 colon, 43.8 µM.
Take `O=C(Nc1ccc(N2CCNCC2)cc1)c1[nH]ncc1Nc1cc(Oc2ccccc2)ncn1`: in the assay with DU-145 prostate, the GI50 was 3.03 µM and the TGI stood at 11.2 µM. Besides, in the assay on MDA-MB-435, the GI50 was 1.68 µM and the TGI came to 4.66 µM.
In the case of `O=C1CNCCCN2CCN(CCCNCC(=O)Nc3ccc(cc3)S(=O)(=O)c3ccc(cc3)NC(=O)CNCCCN3CCN(CCCNCC(=O)Nc4ccc(cc4)S(=O)(=O)c4ccc(cc4)N1)CC3)CC2`, the TGI in the assay on DU-145 prostate was > 100 µM; with MDA-MB-435 it was > 58.8 µM; in the assay with MDA-N it was 42.2 µM.
In the case of `N#CSCC1CC(O)(c2ccccc2)C(c2ccccc2)C(c2ccc(Cl)cc2)O1` (stereo not drawn), the GI50 with DU-145 prostate was 2.02 µM; in the assay with MDA-MB-435, 1.4 µM. Moreover, the TGI came to 4.67 µM in the assay with DU-145 prostate and 2.88 µM in the assay with MDA-MB-435.
Consider `CCN(CC)c1c(C(=O)/C=C/c2ccccc2)c(-c2ccccc2)nn(C)c1=O`, for which the TGI with DLD-1 colon, in the assay with DMS 114 small cell lung and with KM20L2 colon was > 100 µM throughout.
Consider `O=C(O)Cn1ccc(=O)c2ccc([N+](=O)[O-])cc21`, for which the TGI in the assay on DU-145 prostate, with MDA-MB-435 and in the assay on MDA-N was > 100 µM in each case.
In the case of `Cc1cc(I)cc(CNCCCN2CCSCC2)c1O`, the GI50 in the assay on DU-145 prostate is 20.3 µM; with MDA-MB-435, 13.6 µM. For the same compound, the results for the TGI in the assay with DU-145 prostate and in the assay with MDA-MB-435 were 42.7 µM and 26.6 µM, respectively.
In the same order, the values of `Cc1ccc2c(c1)C(=O)/C(=C/c1ncc([N+](=O)[O-])n1C)O2` are 2.65 µM, 0.371 µM, 7.63 µM and 1.88 µM.
`O=NN(Cc1ccc(Cl)cc1)C(C(=O)O)c1ccccc1` (stereo not drawn): the TGI in the assay with DU-145 prostate, in the assay with MDA-MB-435 and with MDA-N was > 100 µM in each case.
Take `O=[N+]([O-])/C=C\c1ccc(Cl)c(Cl)c1`: in the assay with DU-145 prostate, the GI50 is 1.81 µM and the TGI amounted to 4.15 µM. Besides, in the assay with MDA-MB-435, the GI50 was 1.27 µM and the TGI amounted to 2.86 µM.
For `CCNCCNc1cc(-c2ccc(C(=O)OC)cc2)c(C#N)c2nc3ccccc3n12`, the GI50 was 2.65 µM with DU-145 prostate and 1.71 µM in the assay on MDA-MB-435. The results for the TGI with DU-145 prostate and in the assay with MDA-MB-435 were > 100 µM and 3.47 µM, respectively.
Consider `O=C(CI)NC1Oc2ccccc2-c2oc(=O)c(-c3ccccc3)cc21` (stereo not drawn), for which, in the assay with DU-145 prostate, the GI50 is 1.57 µM and the TGI turned out to be 2.98 µM. In the assay on MDA-MB-435, the GI50 was 1.68 µM and the TGI came out at 3.16 µM.
As for `CC1=C(C(=O)Nc2ccc3[nH]ncc3c2)C(c2ccc3ccccc3c2)CC(=O)N1` (stereo not drawn), in the assay on DU-145 prostate, the GI50 is > 25 µM and the TGI is > 25 µM. Moreover, in the assay on MDA-MB-435, the GI50 was > 25 µM and the TGI is > 25 µM.
As for `CN1CCN(Cc2ccc(NC(=O)c3cncc(C#Cc4cnc(N)c5ccc(C#N)cc45)c3)cc2C(F)(F)F)CC1`, the GI50 in the assay with DU-145 prostate is 0.0332 µM; in the assay on MDA-MB-435, 0.0286 µM. The TGI with DU-145 prostate was found to be 1.47 µM; in the assay with MDA-MB-435, 0.675 µM.
For the compound `COc1cc(OC)cc(-c2ccc(-c3ccc(C(=N)N)o3)o2)c1`, the GI50 with DU-145 prostate was 4.28 µM; in the assay with MDA-MB-435, 1.52 µM. The TGI worked out at 15.2 µM with DU-145 prostate and 3.12 µM in the assay with MDA-MB-435.
Turning to `N#Cc1ccc(C#Cc2ccccc2C#CCCCCO)cc1`, in the assay on DU-145 prostate, the GI50 was 16 µM and the TGI worked out at 29.8 µM. In the assay with MDA-MB-435, the GI50 was 18.9 µM and the TGI was found to be 35.6 µM.
Turning to `O=C1C=CC(=Nc2ccc3c(c2)C(Br)c2ccccc2-3)O1` (stereo not drawn), the TGI with DLD-1 colon and in the assay on DMS 114 small cell lung was > 100 µM throughout.
`C[C@]12CC[C@H](O)CC1=CC[C@@H]1[C@@H]2CC[C@]2(C)C(c3cccnc3)=CC[C@@H]12`: in the assay with DU-145 prostate, the GI50 is > 100 µM and the TGI is > 100 µM. In the assay with MDA-MB-435, the GI50 is 12.2 µM and the TGI was > 100 µM.

For the origin of these results see PubChem BioAssay (NCI).
